The text below walks through data of ChEMBL document CHEMBL5143714, “Discovery of BMS-986339, a Pharmacologically Differentiated Farnesoid X Receptor Agonist for the Treatment of Nonalcoholic Steatohepatitis” (J Med Chem, 2022).

The nature of data set [1]: Half life in Sprague-Dawley rat at 1 mg/kg, iv. Conditions: in vivo. It counts as ADME, organism-based.
The nature of data set [2]: Volume of distribution at steady state in C57BL6 mouse at 1 mg/kg, iv. It counts as ADME, organism-based. As to conditions: in vivo, read-out: Vdss.
Data set [3] addresses T1, Nuclear receptor subfamily 1 group I member 2 (Homo sapiens, UniProt O75469).
T1 sequence (O75469 whole entry): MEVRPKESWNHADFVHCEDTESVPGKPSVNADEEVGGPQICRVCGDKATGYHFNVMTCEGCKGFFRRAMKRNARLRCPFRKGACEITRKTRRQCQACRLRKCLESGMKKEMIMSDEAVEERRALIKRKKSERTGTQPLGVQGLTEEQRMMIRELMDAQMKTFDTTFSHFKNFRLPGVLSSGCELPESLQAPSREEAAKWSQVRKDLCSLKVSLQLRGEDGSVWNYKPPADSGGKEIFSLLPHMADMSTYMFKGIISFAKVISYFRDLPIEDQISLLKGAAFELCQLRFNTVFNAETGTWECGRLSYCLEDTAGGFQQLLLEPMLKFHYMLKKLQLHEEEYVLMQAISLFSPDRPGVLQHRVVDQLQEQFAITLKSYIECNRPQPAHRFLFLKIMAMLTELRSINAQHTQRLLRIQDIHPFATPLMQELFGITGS
Put plainly: Transactivation of PXR (unknown origin) relative to refampicin. The format is ADME.

The target of data set [4] is T1, Nuclear receptor subfamily 1 group I member 2. Put plainly: Transactivation of PXR (unknown origin). The format is ADME.
Data set [5] is described as follows: Metabolic stability in mouse liver microsome assessed as parent compound remaining at […] measured after 10 mins. The format is ADME. As to conditions: liver microsomes, read-out: Stability. In general terms: Microsomes from liver hold many membrane-bound enzymes, among them those of drug oxidation.
The next data set has as its target Bile salt export pump (Homo sapiens, UniProt O95342). Put plainly: Inhibition of BSEP (unknown origin).
Data set [6] has as its system Bile acid receptor (Homo sapiens). Put plainly: Agonist activity at human FXR expressed in HEK293 cells coexpressing human FGF19 incubated for 24 hrs by ELISA analysis relative to GW2064. As to conditions: filed as agonist. Background: In an ELISA, binding on a coated surface is turned into a signal by an enzyme label.

Bile salt export pump, sequence (O95342 whole entry): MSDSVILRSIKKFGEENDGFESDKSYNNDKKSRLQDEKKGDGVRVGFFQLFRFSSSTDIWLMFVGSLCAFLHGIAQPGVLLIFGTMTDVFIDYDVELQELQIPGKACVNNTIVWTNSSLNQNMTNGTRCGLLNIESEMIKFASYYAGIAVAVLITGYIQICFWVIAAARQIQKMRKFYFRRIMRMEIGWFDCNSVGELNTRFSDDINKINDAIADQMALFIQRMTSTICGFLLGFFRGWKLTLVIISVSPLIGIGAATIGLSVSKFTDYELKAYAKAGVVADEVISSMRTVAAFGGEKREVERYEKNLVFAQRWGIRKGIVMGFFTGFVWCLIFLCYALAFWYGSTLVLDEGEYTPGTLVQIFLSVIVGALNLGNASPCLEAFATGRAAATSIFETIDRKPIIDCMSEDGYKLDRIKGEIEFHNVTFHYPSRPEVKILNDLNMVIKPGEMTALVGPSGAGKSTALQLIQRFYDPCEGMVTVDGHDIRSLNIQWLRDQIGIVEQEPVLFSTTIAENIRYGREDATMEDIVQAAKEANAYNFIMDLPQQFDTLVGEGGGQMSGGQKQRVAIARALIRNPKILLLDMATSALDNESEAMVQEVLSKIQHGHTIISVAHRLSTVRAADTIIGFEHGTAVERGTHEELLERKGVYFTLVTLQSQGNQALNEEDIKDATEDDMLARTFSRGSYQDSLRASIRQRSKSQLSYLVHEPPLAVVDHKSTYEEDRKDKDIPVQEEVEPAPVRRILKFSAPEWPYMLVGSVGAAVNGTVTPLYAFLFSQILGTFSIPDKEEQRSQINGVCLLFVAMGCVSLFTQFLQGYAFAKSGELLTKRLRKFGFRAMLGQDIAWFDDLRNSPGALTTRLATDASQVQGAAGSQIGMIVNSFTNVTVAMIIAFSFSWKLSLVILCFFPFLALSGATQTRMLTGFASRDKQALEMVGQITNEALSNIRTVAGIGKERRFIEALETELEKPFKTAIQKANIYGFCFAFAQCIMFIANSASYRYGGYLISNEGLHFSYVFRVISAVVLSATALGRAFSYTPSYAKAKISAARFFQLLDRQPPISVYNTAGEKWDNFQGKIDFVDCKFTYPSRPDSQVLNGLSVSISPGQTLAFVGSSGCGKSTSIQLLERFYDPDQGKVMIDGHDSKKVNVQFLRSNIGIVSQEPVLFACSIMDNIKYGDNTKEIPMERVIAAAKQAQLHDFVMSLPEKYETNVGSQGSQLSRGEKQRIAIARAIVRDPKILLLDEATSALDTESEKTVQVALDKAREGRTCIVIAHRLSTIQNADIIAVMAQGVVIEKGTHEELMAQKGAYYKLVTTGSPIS

In the case of `CC(C)(O)c1ccc(-c2cccc(N(CC34CCC(c5noc(C(C)(C)F)n5)(CC3)CC4)C(=O)[C@H]3C[C@](O)(C(F)(F)F)C3)c2)cc1`, the half-life in data set [1] is 18 h. The Vd in data set [2] amounted to 2.2 L/kg. The figures for the Emax in data set [3] and in data set [6] were 11% and 89%, respectively. Also, the EC50 in data set [4] turned out to be 50 µM. Moreover, the remaining at 10 min in data set [5] is 90%. For the same molecule, the 50% inhibitory concentration (IC50) at Bile salt export pump turned out to be 1.4 µM.

The half-life is the time needed for the level to fall by half in the phase considered. Higher therefore signals slow decline. For orientation: Emax means the greatest response seen or fitted, relative to the assay's reference. The term EC50 denotes the concentration needed to bring the measured effect to its halfway point. Low readings indicate higher potency in that assay, high ones lower potency in that assay. The IC50 is the point on the concentration scale where inhibition reaches its midpoint.
